# Key:
# dog [1] = conditions: Chronic toxicity; beagle; Oral; Feed; dose end: 52 week; group: systemic; systemic / in life observation / body weight / body weight gain + systemic / organ weight / heart / absolute + systemic / organ weight / …
# rat [2] = conditions: Combined chronic toxicity/carcinogenicity, sprague dawley, Oral, Feed, dose end: 104 week, group: systemic
# rat [3] = conditions: Multigenerational reproductive toxicity study, sprague dawley, Oral, Feed, dose end: 2 generation
# mouse [4] = conditions: Carcinogenicity; cd1; Oral; Feed; dose end: 18 month; group: systemic; systemic / hematology / erythrocyte (rbc) count differential / erythrocyte (rbc) + systemic / hematology / heinz body / heinz body + …
# rat [5] = conditions: Subchronic oral toxicity in rodents, sprague dawley, Feed, dose end: 90 day, group: systemic, systemic / hematology / erythrocyte (rbc) count differential / erythrocyte (rbc) + systemic / hematology / hematocrit (hct) / hematocrit (…
# dog [6] = conditions: Chronic toxicity, beagle, Oral, Capsule, dose end: 52 week, group: systemic
# rat [7] = conditions: Subchronic oral toxicity in rodents, sprague dawley, Feed, dose end: 90 day, group: systemic
# rat [8] = conditions: Combined chronic toxicity/carcinogenicity, other, Oral, Feed, dose end: 104 week, group: systemic
# mouse [9] = conditions: Subchronic oral toxicity in rodents, cd1, Feed, dose end: 90 day, group: systemic
# dog [10] = conditions: Subchronic oral toxicity in nonrodent, beagle, Feed, dose end: 13 week
# rat [11] = conditions: Combined chronic toxicity/carcinogenicity, sprague dawley, Oral, Feed, dose end: 24 month
# rat [12] = conditions: Multigenerational reproductive toxicity study, other, Oral, Feed, dose end: 2 generation
# rat [13] = conditions: Subchronic oral toxicity in rodents, sprague dawley, Feed, dose end: 13 week
# mouse [14] = conditions: Subchronic oral toxicity in rodents, cd1, Feed, dose end: 90 day, group: cholinesterase
# dog [15] = conditions: Chronic toxicity, beagle, Oral, Feed, dose end: 52 week, group: cholinesterase
# rabbit = conditions: Prenatal developmental toxicity study, new zealand white, Oral, Gavage/Intubation, dose end: 19 GD
# mouse [16] = conditions: Carcinogenicity, cd1, Oral, Feed, dose end: 78 week
# [17] = systemic / in life observation / body weight / body weight + systemic / clinical chemistry / phosphorus / phosphate + systemic / clinical …
# [18] = group: offspring, systemic / organ weight / spleen / absolute + systemic / organ weight / spleen / relative to body weight
# [19] = group: offspring, systemic / organ weight / spleen / absolute + systemic / organ weight / spleen / relative to body weight + systemic / organ weight / liver…
# [20] = group: parental, systemic / organ weight / spleen / absolute + systemic / organ weight / spleen / relative to body weight
# [21] = group: parental, systemic / organ weight / spleen / relative to body weight + systemic / organ weight / spleen / absolute
# [22] = group: reproductive, reproductive / offspring survival early / litter size / litter size
# [23] = systemic / hematology / jolly bodies / jolly bodies + systemic / hematology / mean corpuscular hemoglobin concentration (mchc) / mean …
# [24] = systemic / hematology / mean corpuscular hemoglobin concentration (mchc) / mean corpuscular hemoglobin concentration (mchc)
# [25] = systemic / hematology / erythrocyte (rbc) count differential / erythrocyte (rbc) + systemic / hematology / hemoglobin (hgb) / hemoglobin (…
# [26] = systemic / hematology / methemoglobin / methemoglobin + systemic / hematology / reticulocyte / reticulocyte + systemic / pathology …
# [27] = systemic / organ weight / spleen / absolute + systemic / urinalysis / volume / volume
# [28] = systemic / organ weight / spleen / absolute + systemic / organ weight / spleen / relative to body weight + systemic / hematology / …
# [29] = group: cholinesterase, cholinesterase / cholinesterase / cholinesterase / plasma cholinesterase (che)
# [30] = group: systemic, systemic / clinical chemistry / protein / protein + systemic / in life observation / clinical signs / emaciation + systemic / in life …
# [31] = group: cholinesterase, cholinesterase / cholinesterase / cholinesterase / erythrocyte cholinesterase (che) + cholinesterase / cholinesterase / cholinesterase / …
# [32] = group: systemic, systemic / in life observation / body weight / body weight + systemic / in life observation / body weight / body weight gain + systemic / in…
# [33] = group: offspring, systemic / in life observation / body weight / offspring (pup) weight
# [34] = group: parental, systemic / in life observation / body weight / body weight + systemic / in life observation / clinical signs / abnormal feces + systemic / …
# [35] = group: cholinesterase, cholinesterase / cholinesterase / cholinesterase / plasma cholinesterase (che) + cholinesterase / cholinesterase / cholinesterase / brain …
# [36] = group: systemic, systemic / in life observation / body weight / body weight + systemic / in life observation / food consumption / food consumption + systemic…
# [37] = cholinesterase / cholinesterase / cholinesterase / plasma cholinesterase (che) + cholinesterase / cholinesterase / cholinesterase / brain …
# [38] = cholinesterase / cholinesterase / cholinesterase / brain cholinesterase (che)
# [39] = cholinesterase / cholinesterase / cholinesterase / brain cholinesterase (che) + cholinesterase / cholinesterase / cholinesterase / …
# [40] = group: developmental, systemic / in life observation / body weight / fetal weight
# [41] = group: maternal, systemic / in life observation / body weight / body weight gain + systemic / in life observation / clinical signs / defecation + systemic / …
# [42] = group: systemic, systemic / in life observation / body weight / body weight gain + systemic / in life observation / clinical signs / pneumonia + systemic / …
smiles,measurement,setting,value
"O=C1CC=C([O-])N=N1.[K+] [Maleic hydrazide, potassium salt]",LEL,dog [1],87 mg/kg/day
same,LOAEL,dog [1],87 mg/kg/day
same,NEL,dog [1],25 mg/kg/day
same,NOAEL,dog [1],25 mg/kg/day
same,LOAEL,rat [2]; systemic / in life observation / body weight / body weight,500 mg/kg/day
same,LEL,rat [2]; [17],500 mg/kg/day
same,NOAEL,rat [2]; [17],25 mg/kg/day
same,NEL,rat [2]; systemic / organ weight / kidney / absolute + systemic / organ weight / liver / absolute + systemic / in life observation / body weight / …,25 mg/kg/day
O=C(NC(=O)c1c(F)cccc1F)Nc1ccc(OC(F)(F)C(F)OC(F)(F)F)c(Cl)c1 (centres undefined) [Novaluron],LOAEL,rat [3]; [18],74.2 mg/kg/day
same,NOAEL,rat [3]; [18],< 74.2 mg/kg/day
same,LEL,rat [3]; [19],74.2 mg/kg/day
same,NEL,rat [3]; [19],< 74.2 mg/kg/day
same,LOAEL,rat [3]; [20],74.2 mg/kg/day
same,NOAEL,rat [3]; [20],< 74.2 mg/kg/day
same,LEL,rat [3]; [21],74.2 mg/kg/day
same,NEL,rat [3]; [21],< 74.2 mg/kg/day
same,LEL,rat [3]; [22],895 mg/kg/day
same,LOAEL,rat [3]; [22],> 895 mg/kg/day
same,NEL,rat [3]; [22],298 mg/kg/day
same,NOAEL,rat [3]; [22],≥ 895 mg/kg/day
same,LEL,mouse [4],53.4 mg/kg/day
same,LOAEL,mouse [4],53.4 mg/kg/day
same,NEL,mouse [4],3.6 mg/kg/day
same,NOAEL,mouse [4],3.6 mg/kg/day
same,LEL,rat [5],8.64 mg/kg/day
same,LOAEL,rat [5],8.64 mg/kg/day
same,NEL,rat [5],4.38 mg/kg/day
same,NOAEL,rat [5],4.38 mg/kg/day
same,LOAEL,dog [6]; [23],100 mg/kg/day
same,NOAEL,dog [6]; [23],10 mg/kg/day
same,LEL,dog [6]; [24],10 mg/kg/day
same,NEL,dog [6]; [24],< 10 mg/kg/day
same,LEL,rat [7]; [25],4.7 mg/kg/day
same,NEL,rat [7]; [25],< 4.7 mg/kg/day
same,LOAEL,rat [7]; [26],818 mg/kg/day
same,NOAEL,rat [7]; [26],8.3 mg/kg/day
same,LOAEL,rat [8]; systemic / in life observation / clinical signs / anemia,30.6 mg/kg/day
same,NOAEL,rat [8]; systemic / in life observation / clinical signs / anemia + systemic / hematology / erythrocyte (rbc) count differential / erythrocyte (rbc…,1.1 mg/kg/day
same,LEL,rat [8]; [27],1.4 mg/kg/day
same,NEL,rat [8]; [27],< 1.4 mg/kg/day
same,LEL,mouse [9]; systemic / hematology / erythrocyte (rbc) count differential / erythrocyte (rbc) + systemic / hematology / hematocrit (hct) / hematocrit (…,15.2 mg/kg/day
same,LOAEL,mouse [9]; systemic / organ weight / spleen / absolute + systemic / organ weight / spleen / relative to body weight,136 mg/kg/day
same,NEL,mouse [9]; [28],4.7 mg/kg/day
same,NOAEL,mouse [9]; [28],15.2 mg/kg/day
CCOC(=O)CSc1nc(C(C)(C)C)nn1C(=O)N(C)C [Triazamate],LEL,dog [10]; [29],0.03 mg/kg/day
same,LOAEL,dog [10]; [29],0.03 mg/kg/day
same,NEL,dog [10]; [29],< 0.03 mg/kg/day
same,NOAEL,dog [10]; [29],< 0.03 mg/kg/day
same,LOAEL,dog [10]; [30],3.11 mg/kg/day
same,NOAEL,dog [10]; [30],0.31 mg/kg/day
same,NEL,"dog [10]; group: systemic, systemic / in life observation / clinical signs / distended abdomens + systemic / in life observation / clinical signs / vomitting + …",0.03 mg/kg/day
same,LEL,"dog [10]; group: systemic, systemic / in life observation / clinical signs / vomitting",0.31 mg/kg/day
same,LEL,rat [11]; [31],11.5 mg/kg/day
same,LOAEL,rat [11]; [31],11.5 mg/kg/day
same,NEL,rat [11]; [31],0.45 mg/kg/day
same,NOAEL,rat [11]; [31],0.45 mg/kg/day
same,LEL,rat [11]; [32],59.2 mg/kg/day
same,LOAEL,rat [11]; [32],> 59.2 mg/kg/day
same,NEL,rat [11]; [32],11.5 mg/kg/day
same,NOAEL,rat [11]; [32],≥ 59.2 mg/kg/day
same,LEL,rat [12]; [31],17 mg/kg/day
same,LOAEL,rat [12]; [31],17 mg/kg/day
same,NEL,rat [12]; [31],0.7 mg/kg/day
same,NOAEL,rat [12]; [31],0.7 mg/kg/day
same,LEL,rat [12]; [33],101 mg/kg/day
same,LOAEL,rat [12]; [33],101 mg/kg/day
same,NEL,rat [12]; [33],17 mg/kg/day
same,NOAEL,rat [12]; [33],17 mg/kg/day
same,LEL,rat [12]; [34],101 mg/kg/day
same,LOAEL,rat [12]; [34],> 101 mg/kg/day
same,NEL,rat [12]; [34],17 mg/kg/day
same,NOAEL,rat [12]; [34],≥ 101 mg/kg/day
same,LEL,rat [13]; [29],31 mg/kg/day
same,LOAEL,rat [13]; [29],31 mg/kg/day
same,NEL,rat [13]; [35],3 mg/kg/day
same,NOAEL,rat [13]; [35],3 mg/kg/day
same,LOAEL,"rat [13]; group: systemic, systemic / in life observation / body weight / body weight + systemic / in life observation / food consumption / food consumption",93 mg/kg/day
same,LEL,rat [13]; [36],93 mg/kg/day
same,NEL,rat [13]; [36],31 mg/kg/day
same,NOAEL,rat [13]; [36],31 mg/kg/day
same,LOAEL,mouse [14]; cholinesterase / cholinesterase / cholinesterase / plasma cholinesterase (che),4.55 mg/kg/day
same,NEL,mouse [14]; [37],0.336 mg/kg/day
same,NOAEL,mouse [14]; [37],0.336 mg/kg/day
same,LEL,mouse [14]; cholinesterase / cholinesterase / cholinesterase / plasma cholinesterase (che) + cholinesterase / cholinesterase / cholinesterase / …,4.55 mg/kg/day
same,LEL,dog [15]; [38],0.0232 mg/kg/day
same,LOAEL,dog [15]; [38],0.0232 mg/kg/day
same,NEL,dog [15]; [39],0.0172 mg/kg/day
same,NOAEL,dog [15]; [39],0.0172 mg/kg/day
same,LEL,rabbit; [40],0.5 mg/kg/day
same,LOAEL,rabbit; [40],> 10 mg/kg/day
same,NEL,rabbit; [40],0.05 mg/kg/day
same,NOAEL,rabbit; [40],≥ 10 mg/kg/day
same,LEL,rabbit; [41],0.5 mg/kg/day
same,LOAEL,rabbit; [41],0.5 mg/kg/day
same,NEL,rabbit; [41],0.05 mg/kg/day
same,NOAEL,rabbit; [41],0.05 mg/kg/day
same,LEL,mouse [16]; [29],6.7 mg/kg/day
same,LOAEL,mouse [16]; [29],6.7 mg/kg/day
same,NEL,mouse [16]; [35],0.13 mg/kg/day
same,NOAEL,mouse [16]; [35],0.13 mg/kg/day
same,LOAEL,"mouse [16]; group: systemic, systemic / in life observation / body weight / body weight gain + systemic / in life observation / clinical signs / pneumonia",210 mg/kg/day
same,LEL,mouse [16]; [42],210 mg/kg/day
same,NEL,mouse [16]; [42],6.7 mg/kg/day
same,NOAEL,mouse [16]; [42],6.7 mg/kg/day

# From EPA's ToxRefDB 2
